System: α7 integrin promoter
Test: muscle cell-based assay: α7βgal+/− myoblasts/myotubes, LacZ reporter, β-galactosidase cleavage of FDG
Set-up: species or system mouse; Results in α7+/− β-galactosidase assay: scale not given here
Conditions: Myoblasts
Method in brief: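 Primary α7βgal+/− mouse myoblasts (LacZ knocked into α7 integrin exon 1, promoter retained), differentiated; promoter activity read as β-galactosidase conversion of non-fluorescent FDG to fluorescein. Hits followed by dose-response, western analysis and myostatin counterscreen.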

| SMILES | Results in α7+/− β-galactosidase assay (0.5 uM) | Results in α7+/− β-galactosidase assay (1 uM) | Results in α7+/− β-galactosidase assay (5 uM) | Results in α7+/− β-galactosidase assay (10 uM) | Results in α7+/− β-galactosidase assay (20 uM) | Results in α7+/− β-galactosidase assay (40 uM) |
| --- | --- | --- | --- | --- | --- | --- |
| O=C1C2CCCN2C(=O)N1CCCN1CCN(c2cccc(Br)c2)CC1 (stereo not drawn) [drawing 661] | 0.07667 | 0.0555 | 0.04982 | 0.05028 | 0.1016 | 0.1941 |
| C=CCc1c(C)nc(-c2ccccc2)nc1N/N=C(\C)c1ccc(N)cc1 [drawing 662] | −0.00814 | −0.05498 | 0.04244 | 0.0834 | −0.05956 | −0.02989 |
| CC(C)(C)c1csc(NC(=O)c2cccnc2)n1 [drawing 663] | 0.2482 | 0.1813 | 0.09125 | 0.06663 | −0.2863 | −0.3378 |
| Cc1ccccc1/C=C1\C(=O)Nc2ccc(F)cc21 [drawing 664] | 0.2562 | 0.1979 | 0.05318 | 0.04838 | −0.109 | −0.1352 |
| Cc1ccc2c(c1)/C(=C/c1ccccc1)C(=O)N2 [drawing 665] | 0.07717 | 0.02304 | 0.03576 | 0.07323 | −0.484 | −0.5725 |
| COC(=O)c1ccccc1CC(=O)CSc1nc(O)c(-c2ccccc2)c(O)n1 [drawing 666] | 0.06548 | 0.01829 | 0.06613 | 0.1141 | 0.0713 | 0.08837 |
| Cc1ccc2c(c1)/C(=C/c1ccccc1F)C(=O)N2 [drawing 667] | −0.02616 | 0.02782 | −0.04422 | −0.06595 | −0.1695 | −0.3533 |
| CC(=O)Nc1ccc(-n2c(C)nc(=O)c(-c3ccccc3)c2C)cc1 [drawing 668] | 0.06264 | −0.004 | −0.1843 | −0.1948 | −0.4829 | −0.7384 |
| CCc1nc2ccccc2c(C(=O)NCc2ccccc2)c1C [drawing 669] | 0.09233 | 0.1045 | 0.3581 | −0.08672 | 0.0466 | 0.1074 |
| CCOC(=O)c1cc(-c2cccs2)nc2c1c(C)nn2-c1ccccn1 [drawing 670] | 0.09738 | 0.1342 | −0.1204 | −0.2068 | −0.3072 | −0.5198 |
| CN1CCN(c2ccccc2/C=C2\C(=O)Nc3ccccc32)CC1 [drawing 671] | 0.1788 | 0.04505 | −0.08497 | −0.09387 | −0.1256 | −0.3824 |
| COC(=O)c1cc(S(=O)(=O)NCC2CCN(Cc3ccc(Cl)cc3)CC2)cn1C [drawing 672] | 0.2815 | 0.1861 | −0.03678 | −0.03865 | 0.1247 | 0.0618 |
| COc1ccc(C(=O)Cn2nnc(-c3ccccc3NC(=O)c3ccco3)n2)cc1 [drawing 673] | 0.4054 | 0.1958 | −0.2666 | −0.3483 | −0.6016 | −0.7762 |
| N#Cc1nc(COc2ccccc2)oc1N1CCCC1 [drawing 674] | 0.189 | 0.0825 | −0.1343 | −0.1744 | −0.09766 | −0.3419 |
| CCCc1nnc(SCC(=O)NC2CCCC2)n1CCOC [drawing 675] | 0.1622 | 0.07572 | −0.08939 | −0.107 | −0.1998 | −0.413 |
| Nc1cccc(/C=C/C(=O)O)c1 [drawing 676] | 0.1361 | 0.05647 | −0.05605 | 0.2478 | −0.08666 | −0.2769 |
| CCCC1C(c2cc(OC)c(OC)c(OC)c2)=Nc2c1c(=O)[nH]c(=O)n2Cc1ccccc1 (stereo not drawn) [drawing 677] | 0.221 | 0.193 | −0.1488 | 0.1807 | −0.03424 | −0.4586 |
| CC(C)(C)c1ccc(C(=O)OCC(=O)Nc2sc3c(c2C#N)CCC3)cc1 [drawing 678] | 0.2055 | 0.1005 | 0.3001 | −0.02658 | 0.3137 | 0.2257 |
| CCOc1cc(C)c(S(=O)(=O)N2CCCCC2)cc1C [drawing 679] | 0.1137 | 0.2418 | 0.02032 | −0.02723 | 0.1874 | 0.2404 |
| Cc1cc(OCC(=O)NC(C)C)ccc1Cl [drawing 680] | −0.00101 | 0.01964 | −0.2128 | −0.3742 | −0.5775 | −0.6915 |
| Cc1ccsc1CN(C)CC(=O)Cc1ccc([N+](=O)[O-])cc1Cl [drawing 681] | 0.233 | 0.3513 | −0.03377 | −0.09863 | −0.01304 | −0.0403 |
| O=C1c2ccccc2C(=O)C1(CC(O)O)c1ccccc1 [drawing 682] | 0.2496 | 0.3517 | −0.03545 | −0.1644 | −0.1709 | −0.2409 |
| Cc1ccc(Cn2nnc3c(O)nc(C4CCCN(C(=O)c5ccco5)C4)nc32)cc1 (stereo not drawn) [drawing 683] | 0.09519 | 0.1784 | −0.02152 | −0.00668 | −0.00332 | 0.06402 |
| Cc1ccc(NS(=O)(=O)c2ccc(-c3ccc(O)nn3)o2)c(C)c1 [drawing 685] | 0.09197 | 0.1114 | −0.00204 | −0.06144 | 0.2389 | 0.2674 |
| CCCCN1CC(=O)N2Cc3[nH]c4ccccc4c3C[C@H]2C1=O [drawing 686] | 0.1518 | 0.2222 | −0.00341 | −0.04523 | 0.1761 | 0.2299 |
| CCC(CC)C(=O)Nc1c(C(=O)N2CCN(c3ccccc3)CC2)oc2ccccc12 [drawing 687] | 0.02952 | 0.08671 | 0.02479 | −0.0251 | 0.2442 | 0.3404 |
| Cc1nc(/C=C2\C(=O)Nc3ccccc32)c[nH]1 [drawing 688] | 0.0102 | 0.003171 | 0.1245 | −0.03494 | 0.1171 | 0.02067 |
| O=C(NCCc1ccc(Cl)cc1)C1CCCO1 (stereo not drawn) [drawing 689] | 0.03412 | 0.00045 | 0.2918 | 0.03423 | 0.08798 | 0.003802 |

Source: patent US10028992B2, “Methods of treating muscular dystrophy” (BOARD OF REGENTS OF THE NEVADA SYSTEM OF HIGHER EDUCATION …, priority 2012, dated 2018)
